Tested on: STZ-treated mice
Assay: STZ-treated mice, second experiment: body weight to day 80 and survival
Format: in vivo
Details: for survivors: 80th day
Text: In a second similar experiment performed with 6 mice in each group, the changes in body weight were followed for up to 80 days (when the last STZ-treated mouse died), and survival was followed for up to 100 days.
For the body weight (on the 80th day) and survival the following values were obtained: Untreated (6 survivors), 37.7 g; STZ-treated (one last survivor died on day 80, others survived for 22, 25, 27, 60, 75 days), 26.0 g; CCompound1-treated (6 survivors), 36.0 g; STZ+CCompound1 treated (6 survivors), 33.4 g; STZ+CCompound3-treated (5 survivors; one mouse died on day 78), 32.5 g. At the start of the experiment (day 0), the average body weight ranged from 28.6 to 29.8 g. Accordingly, by day 80, STZ-treated animals that were also treated with CCompound1 and CCompound3 gained about 50% of the weight gained by the untreated animals.

[1] = STZ + compound, 6 mice per group

`Cc1c(OCC(O)C[N+](C)(C)C)cc2c(=O)c3ccccc3sc2c1C.[Cl-]` (centres unmarked) [CCcompound1, [3-(3,4-Dimethyl-9-oxo-9H-thioxanthen-2-yloxy)-2-hydroxypropyl]trimethyl-ammonium chloride] was tested, and the “weight gained by day 80 relative to the weight gained by the untreated animals” value (STZ + compound) was “about 50%”, the “body weight on the 80th day” value [1] was 33.4 g and the survivors [1] was 6. For the same molecule, the “body weight on the 80th day” value (compound alone, no STZ, 6 mice) was 36.0 g and the survivors (compound alone, no STZ, 6 mice per group) was 6.

Reference: patent publication US20090030066A1, “SMALL MOLECULES FOR THE PROTECTION OF PANCREATIC CELLS” (priority 2007, published 2009)
